Activity calls are given as the source filed them. The rule behind the calls is not given here.
target: T1, Gamma-secretase subunit PEN-2 (Homo sapiens, UniProt Q9NZ42); experiment: (§1) Inhibitory activity against gamma-secretase relative to DAPT
T1 sequence (Q9NZ42 whole entry): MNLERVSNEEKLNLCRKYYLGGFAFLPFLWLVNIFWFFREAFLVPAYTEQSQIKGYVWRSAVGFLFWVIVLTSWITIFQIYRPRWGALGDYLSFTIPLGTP

With `C[C@H](NC(=O)Cc1cc(F)cc(F)c1)C(=O)N[C@@H](Cc1ccccc1)C(=O)OC(C)(C)C` as the molecule, how does the Relative activity read?
Its Relative activity is 1.

With `C[C@H](NC(=O)Cc1cc(F)cc(F)c1)C(=O)N[C@@H](Cc1ccccc1)C(=O)NCc1ccccc1` as the molecule, how does the Relative activity read?
The Relative activity was 1.

How did the Relative activity turn out when `CCCCNC(=O)[C@H](Cc1ccccc1)NC(=O)[C@H](C)NC(=O)Cc1cc(F)cc(F)c1` was run?
Its Relative activity is 0.3.

For `C[C@H](NC(=O)Cc1cc(F)cc(F)c1)C(=O)N[C@@H](Cc1ccccc1)C(=O)NC(c1ccccc1)c1ccccc1`, which Relative activity is on record?
The Relative activity was 1.

target: Gamma-secretase (Homo sapiens) (UniProt Q96BI3+Q9NZ42+Q8WW43+P49768+Q92542+P49810); experiment: as §1; format: protein-complex assay

How did the Relative activity turn out when `C[C@H](NC(=O)Cc1cc(F)cc(F)c1)C(=O)N[C@@H](Cc1ccccc1)C(=O)NCc1cccc(Br)c1` was run?
Its Relative activity is 0.1.

Which Relative activity does the source give for `COc1ccc(CNC(=O)[C@H](Cc2ccccc2)NC(=O)[C@H](C)NC(=O)Cc2cc(F)cc(F)c2)cc1` here?
Its Relative activity is 0.4.

For `C[C@H](NC(=O)Cc1cc(F)cc(F)c1)C(=O)N[C@@H](Cc1ccccc1)C(=O)NCc1ccc(Cl)cc1`, which Relative activity is on record?
Its Relative activity is 0.6.

For `COc1cccc(CNC(=O)[C@H](Cc2ccccc2)NC(=O)[C@H](C)NC(=O)Cc2cc(F)cc(F)c2)c1`, which Relative activity is on record?
The Relative activity was 0.1.

With `C[C@H](NC(=O)Cc1cc(F)cc(F)c1)C(=O)N[C@@H](Cc1ccccc1)C(=O)NCc1ccc(C(=O)c2ccccc2)cc1` as the molecule, how does the Relative activity read?
Its Relative activity is 30.

Which Relative activity does the source give for `C[C@H](NC(=O)Cc1cc(F)cc(F)c1)C(=O)N[C@@H](Cc1ccccc1)C(=O)NCc1cccc(Cl)c1` here?
The Relative activity was 0.1.

For `C[C@H](NC(=O)Cc1cc(F)cc(F)c1)C(=O)N[C@@H](Cc1ccccc1)C(=O)NCc1ccc(Br)cc1`, which Relative activity is on record?
The Relative activity was 0.6.

How did the Relative activity turn out when `C[C@H](NC(=O)Cc1cc(F)cc(F)c1)C(=O)N[C@@H](Cc1ccccc1)C(=O)NCc1ccc(F)cc1` was run?
Its Relative activity is 0.1.

How did the Relative activity turn out when `COc1ccccc1CNC(=O)[C@H](Cc1ccccc1)NC(=O)[C@H](C)NC(=O)Cc1cc(F)cc(F)c1` was run?
Its Relative activity is 0.2.

`C[C@H](NC(=O)Cc1cc(F)cc(F)c1)C(=O)N[C@@H](Cc1ccccc1)C(=O)NCc1ccccc1Cl` was tested. Which Relative activity did it give?
Its Relative activity is 0.1.

With `COC(=O)c1ccc(CNC(=O)[C@H](Cc2ccccc2)NC(=O)[C@H](C)NC(=O)Cc2cc(F)cc(F)c2)cc1` as the molecule, how does the Relative activity read?
The Relative activity was 0.6.

`C[C@H](NC(=O)Cc1cc(F)cc(F)c1)C(=O)N[C@@H](Cc1ccccc1)C(=O)NCc1ccccc1Br` was tested. Which Relative activity did it give?
The Relative activity was 0.3.

target: T1, Gamma-secretase subunit PEN-2; experiment: Inhibitory activity against gamma-secretase

`C[C@H](NC(=O)Cc1cc(F)cc(F)c1)C(=O)N[C@@H](Cc1ccccc1)C(=O)OC(C)(C)C` was tested. Which IC50 did it give?
The IC50 was 50 nM.

target: T1, Gamma-secretase subunit PEN-2; experiment: Inhibitory activity against gamma-secretase at concentration of 10 uM; not active

`C[C@H](NC(=O)Cc1ccccc1O)C(=O)N[C@@H](Cc1ccccc1)C(=O)OC(C)(C)C` was tested. Which Activity did it give?
Its Activity is “inactive”.

With `C[C@H](NC(=O)Cc1cccc(O)c1)C(=O)N[C@@H](Cc1ccccc1)C(=O)OC(C)(C)C` as the molecule, how does the Activity read?
The Activity was “inactive”.

Which Activity does the source give for `C[C@H](NC(=O)Cc1ccccc1Br)C(=O)N[C@@H](Cc1ccccc1)C(=O)OC(C)(C)C` here?
Its Activity is “inactive”.

Which Activity does the source give for `C[C@H](NC(=O)Cc1ccc(O)cc1)C(=O)N[C@@H](Cc1ccccc1)C(=O)OC(C)(C)C` here?
Its Activity is “inactive”.

Which Activity does the source give for `C[C@H](NC(=O)Cc1ccc(Br)cc1)C(=O)N[C@@H](Cc1ccccc1)C(=O)OC(C)(C)C` here?
The Activity was “inactive”.

For `C[C@H](NC(=O)Cc1cccc(Br)c1)C(=O)N[C@@H](Cc1ccccc1)C(=O)OC(C)(C)C`, which Activity is on record?
Its Activity is “inactive”.

From ChEMBL document CHEMBL1147527, “Parallel synthesis of DAPT derivatives and their gamma-secretase-inhibitory activity” (Bioorg Med Chem Lett, 2004)
